Reference: patent US9765087B2, “Benzimidazole derivatives” (ENANTA PHARMACEUTICALS, INC., priority 2009, dated 2017)
pEC50: −log10 of the molar value. Like-named read-outs stand apart in the source and are kept apart here.

Test system: HCV 1a genotype replicon
Test: HCV replicon assay (qRT-PCR or luciferase), genotype 1a
Assay type: cell-based
Details: Hepatitis C virus
Protocol: HCV replicon cell lines (kindly provided by R. Bartenschlager) isolated from colonies as described by Lohman et. al. (Lohman et al. (1999) Science 285: 110-113, expressly incorporated by reference in its entirety) and used for all experiments. The HCV replicon has the nucleic acid sequence set forth in EMBL Accession No.: AJ242651, the coding sequence of which is from nucleotides 1801 to 8406.
These cell lines were maintained at 37° C., 5% CO2, 100% relative humidity in DMEM (Cat#11965-084, Invitrogen), with 10% fetal calf serum (“FCS”, Invitrogen), 1% non-essential amino acids (Invitrogen), 1% of Glutamax (Invitrogen), 1% of 100× penicillin/streptomycin (Cat#15140-122, Invitrogen) and Geneticin (Cat#10131-027, Invitrogen) at 0.75 mg/ml or 0.5 mg/ml for 11-7 and Huh-luc/neo-ET cells, respectively.
EC50 values of single agent compounds and combinations were determined by HCV RNA detection using quantitative RT-PCR, according to the manufacturer's instructions, with a TAQMAN® One-Step RT-PCR Master Mix Reagents Kit (Cat#AB 4309169, Applied Biosystems) on an ABI Model 7500 thermocycler. The TaqMan primers used for detecting and quantifying HCV RNA were obtained from Integrated DNA Technologies. HCV RNA was normalized to GAPDH RNA levels in drug-treated cells, which is detected and quantified using the Human GAPDH Endogenous Control Mix (Applied Biosystems, AB 4310884E). Total cellular RNA is purified from 96-well plates using the RNAqueous 96 kit (Ambion, Cat# AM1812). Chemical agent cytotoxicity is evaluated using an MTS assay according to the manufacturer's directions (Promega).
Since clinical drug resistance often develops in viral infections following single agent therapies, there is a need to assess the additive, antagonistic, or synergistic properties of combination therapies. We used the HCV replicon system to assess the potential use of the compound of the present invention or in combination therapies with Interferon alpha, cyclosporine analogs and inhibitors targeting other HCV proteins. The acute effects of a single or combinations of drugs are studied in the “Huh-luc/neo-ET” replicon with each chemical agent titrated in an X or Y direction in a 6 point two-fold dilution curve centered around the EC50 of each drug. Briefly, replicon cells are seeded at 7,000 cells per well in 90 ul DMEM (without phenol red, Invitrogen Cat.#31053-036) per well with 10% FCS, 1% non-essential amino acids, 1% of Glutamax and 1% of 100× penicillin/streptomycin and incubated overnight at 37° C., 5% CO2, 100% relative humidity. 16-20 h after seeding cells, test compounds previously solubilized and titrated in dimethyl sulfoxide (“DMSO”) from each X plate and Y plate are diluted 1:100 in DMEM (without phenol red, Invitrogen Cat.#31053-036) with 10% FCS, 1% non-essential amino acids, 1% of Glutamax and 1% of 100× penicillin/streptomycin and added directly to the 96-well plate containing cells and growth medium at a 1:10 dilution for a final dilution of compound and DMSO of 1:1000 ([…] final concentration). Drug treated cells are incubated at 37° C., 5% CO2, 100% relative humidity for 72 hours before performing a luciferase assay using 100 ul per well BriteLite Plus (Perkin Elmer) according to the manufacturer's instructions. Data analysis utilizes the method published by Prichard and Shipman (Antiviral Research, 1990. 14:181-205). Using this method, the combination data are analyzed for antagonistic, additive, or synergistic combination effects across the entire combination surface created by the diluted compounds in combination.
The compounds of the present invention can be effective against the HCV 1b genotype. It should also be understood that the compounds of the present invention can inhibit multiple genotypes of HCV. In one embodiment compound of the present invention are active against the 1a, 1b, 2a, 2b, 3a, 4a, and 5a genotypes. […] EC50 ranges against HCV 1b and 1a are as follows: A>10 nM; B1-10 nM; C<1 nM.

[1] = Table 12, range class, read-out: 1a EC50 Range
[2] = Table 12, numeric values, read-out: 1a EC50

Row | Structure (SMILES) | pEC50 [1] | pEC50 [2]
1 | COC(=O)N[C@H](C(=O)N1CC2(CC2)C[C@H]1c1ncc(-c2ccc(C#Cc3ccc4nc([C@@H]5CC6(CC6)CN5C(=O)[C@@H](NC(=O)OC)C5CCCC5)[nH]c4c3)cc2)[nH]1)C(C)C [Example 679] | > 9.00 | 
2 | COC(=O)N[C@@H](CCCCNC(N)=O)C(=O)N1CCC[C@H]1c1nc(-c2ccc(C#Cc3ccc4[nH]c([C@@H]5CC6(CC6)CN5C(=O)[C@@H](NC(=O)OC)C(C)C)nc4c3)cc2)c[nH]1 [Example 620] | > 9.00 | 
3 | COC(=O)N[C@H](C(=O)N1CCC[C@H]1c1ncc(-c2ccc(C#Cc3ccc4nc([C@@H]5C[C@@H](C6CC6)CN5C(=O)[C@@H](NC(=O)OC)C(C)C)[nH]c4c3)cc2)[nH]1)C(C)C [Example 572] | > 9.00 | 
4 | COC(=O)N[C@H](C(=O)N1CC2(CC2)C[C@H]1c1ncc(-c2ccc(C#Cc3ccc4nc([C@@H]5CC6(CC6)CN5C(=O)[C@@H](NC(=O)OC)[C@@H](C)OC)[nH]c4c3)cc2)[nH]1)C(C)C [Example 589] | > 9.00 | 
5 | COC(=O)N[C@H](C(=O)N1CC2(CC2)C[C@H]1c1nc2ccc(C#Cc3ccc(-c4cnc([C@@H]5CCCN5C(=O)[C@H](NC(=O)OC)c5ccco5)[nH]4)cc3)cc2[nH]1)C(C)C [Example 682] | > 9.00 | 
6 | COC(=O)N[C@H](C(=O)N1CC2(CC2)C[C@H]1c1ncc(-c2ccc(C#Cc3ccc4nc([C@@H]5CC6(CC6)CN5C(=O)[C@H](NC(=O)OC)c5cccc(OC)c5)[nH]c4c3)cc2)[nH]1)C(C)C [Example 654] |  | 9.73
7 | COC(=O)N[C@H](C(=O)N1CC2(CC2)C[C@H]1c1nc(-c2ccc(C#Cc3ccc4[nH]c([C@@H]5CC6(CC6)CN5C(=O)[C@@H](NC(=O)OC)C(C)C)nc4c3)cc2)c(Cl)[nH]1)C(C)C [Example 588] | > 9.00 | 
8 | COC(=O)N[C@H](C(=O)N1CC2(CC2)C[C@H]1c1nc2ccc(C#Cc3ccc(-c4cnc([C@@H]5C[C@@H](C)CN5C(=O)[C@@H](NC(=O)OC)C5CCOCC5)[nH]4)cc3)cc2[nH]1)C(C)C [Example 603] | > 9.00 | 
9 | COC(=O)N[C@H](C(=O)N1CC2(CC2)C[C@H]1c1nc(-c2ccc(C#Cc3ccc4[nH]c([C@@H]5CC6(CC6)CN5C(=O)[C@@H](NC(=O)OC)C(C)C)nc4c3)cc2)c(-c2ccccc2)[nH]1)C(C)C [Example 661] |  | 9.43
10 | CC[C@H](C)[C@H](NC(=O)OC)C(=O)N1CCC[C@H]1c1ncc(-c2ccc(C#Cc3ccc4nc([C@@H]5CC6(CC6)CN5C(=O)[C@@H](NC(=O)OC)C(C)C)[nH]c4c3)cc2)[nH]1 [Example 673] | > 9.00 | 
11 | CC[C@H](C)[C@H](NC(=O)OC)C(=O)N1CC2(CC2)C[C@H]1c1nc2ccc(C#Cc3ccc(-c4cnc([C@@H]5CC6(CC6)CN5C(=O)[C@@H](NC(=O)OC)C(C)C)[nH]4)cc3)cc2[nH]1 [Example 587] | > 9.00 | 
12 | COC(=O)N[C@H](C(=O)N1CC2(CC2)C[C@H]1c1nc(-c2ccc(C#Cc3ccc4[nH]c([C@@H]5CC6(CC6)CN5C(=O)[C@@H](NC(=O)OC)C(C)C)nc4c3)cc2)c(Br)[nH]1)C(C)C [Example 657] | > 9.00 | 
13 | COC(=O)N[C@H](C(=O)N1CCC[C@H]1c1ncc(-c2ccc(C#Cc3ccc4nc([C@@H]5CC6(CC6)CN5C(=O)[C@@H](NC(=O)OC)C(C)C)[nH]c4c3)cc2)[nH]1)c1ccccc1 [Example 595] | > 9.00 | 
14 | COC(=O)N[C@@H](C(=O)N1CC2(CC2)C[C@H]1c1ncc(-c2ccc(C#Cc3ccc4nc([C@@H]5CC6(CC6)CN5C(=O)[C@H](NC(=O)OC)c5ccc(Cl)cc5)[nH]c4c3)cc2)[nH]1)c1ccc(Cl)cc1 [Example 611] | < 8.00 | 
15 | COC(=O)N[C@H](C(=O)N1CC2(CC2)C[C@H]1c1nc2ccc(C#Cc3ccc(-c4cnc([C@@H]5CCCN5C(=O)[C@H](NC(=O)OC)c5ccsc5)[nH]4)cc3)cc2[nH]1)C(C)C [Example 596] | > 9.00 | 
16 | CC[C@@H](C)[C@H](NC(=O)OC)C(=O)N1CC2(CC2)C[C@H]1c1nc2ccc(C#Cc3ccc(-c4cnc([C@@H]5CC6(CC6)CN5C(=O)[C@@H](NC(=O)OC)C(C)C)[nH]4)cc3)cc2[nH]1 [Example 656] | > 9.00 | 
17 | COC(=O)N[C@H](C(=O)N1CC2(CC2)C[C@H]1c1ncc(-c2ccc(C#Cc3ccc4nc([C@@H]5CC6(CC6)CN5C(=O)[C@H](NC(=O)OC)c5ccsc5)[nH]c4c3)cc2)[nH]1)C(C)C [Example 581] | > 9.00 | 
18 | COC(=O)N[C@H](C(=O)N1CC2(CC2)C[C@H]1c1nc2ccc(C#Cc3ccc(-c4cnc([C@@H]5CCCN5C(=O)[C@H](NC(=O)OC)c5cc(F)cc(F)c5)[nH]4)cc3)cc2[nH]1)C(C)C (stereo in doubt) [Example 678] | > 9.00 | 
19 | COC(=O)N[C@H](C(=O)N1CC2(CC2)C[C@H]1c1ncc(-c2ccc(C#Cc3ccc4nc([C@@H]5CC6(CC6)CN5C(=O)[C@H](NC(=O)OC)c5ccccc5Cl)[nH]c4c3)cc2)[nH]1)C(C)C [Example 651] | > 9.00 | 
20 | COC(=O)N[C@H](C(=O)N1CC2(CC2)C[C@H]1c1nc2ccc(C#Cc3ccc(-c4cnc([C@@H]5CCCN5C(=O)[C@H](NC(=O)OC)c5ccccc5F)[nH]4)cc3)cc2[nH]1)C(C)C [Example 594] | > 9.00 | 
21 | COC(=O)N[C@H](C(=O)N1CCC[C@H]1c1nc(-c2ccc(C#Cc3ccc4[nH]c([C@@H]5C[C@]6(CCCO6)CN5C(=O)[C@@H](NC(=O)OC)C(C)C)nc4c3)cc2)c[nH]1)C(C)C [Example 557] | 8.00 to 9.00 | 
22 | COC(=O)N[C@H](C(=O)N1CC2(CC2)C[C@H]1c1nc2ccc(C#Cc3ccc(-c4cnc([C@@H]5CC6(CC6)CN5C(=O)[C@@H](NC(=O)OC)C5CCOCC5)[nH]4)cc3)cc2[nH]1)C(C)C [Example 658] | > 9.00 | 
23 | COC(=O)N[C@H](C(=O)N1CC2(CC2)C[C@H]1c1nc2ccc(C#Cc3ccc(-c4cnc([C@@H]5CCCN5C(=O)[C@H](NC(=O)OC)c5cccc(OC)c5)[nH]4)cc3)cc2[nH]1)C(C)C [Example 597] |  | 9.64
24 | COC(=O)N[C@H](C(=O)N1C[C@H](CF)C[C@H]1c1ncc(-c2ccc(C#Cc3ccc4nc([C@@H]5C[C@@]6(CCCO6)CN5C(=O)[C@@H](NC(=O)OC)C(C)C)[nH]c4c3)cc2)[nH]1)C(C)C [Example 634] | > 9.00 | 
25 | CC(C)[C@H](NC(=O)OC1CCC1)C(=O)N1CC2(CC2)C[C@H]1c1ncc(-c2ccc(C#Cc3ccc4nc([C@@H]5CC6(CC6)CN5C(=O)[C@@H](NC(=O)OC5CCC5)C(C)C)[nH]c4c3)cc2)[nH]1 [Example 576] | < 8.00 | 
26 | COC(=O)N[C@H](C(=O)N1CC2(CC2)C[C@H]1c1ncc(-c2ccc(C#Cc3ccc4nc([C@@H]5CC6(CC6)CN5C(=O)[C@@H](NC(=O)OC)C5CCCCC5)[nH]c4c3)cc2)[nH]1)C(C)C [Example 675] | > 9.00 | 
27 | COC(=O)N[C@H](C(=O)N1CC2(CC2)C[C@H]1c1nc(-c2ccc(C#Cc3ccc4[nH]c([C@@H]5CC6(CC6)CN5C(=O)[C@@H](NC(=O)OC)C(C)C)nc4c3)cc2)c(F)[nH]1)C(C)C [Example 660] | > 9.00 | 
28 | COC(=O)N[C@H](C(=O)N1CC2(CC2)C[C@H]1c1nc2ccc(C#Cc3ccc(-c4cnc([C@@H]5CCCN5C(=O)[C@H](NC(=O)OC)c5cccc(Cl)c5)[nH]4)cc3)cc2[nH]1)C(C)C [Example 665] | > 9.00 | 
29 | COC(=O)N[C@H](C(=O)N1CC2(CC2)C[C@H]1c1nc(-c2ccc(C#Cc3ccc4[nH]c([C@@H]5C[C@]6(CCCO6)CN5C(=O)[C@@H](NC(=O)OC)C(C)C)nc4c3)cc2)c[nH]1)C(C)C [Example 626] |  | 8.87
30 | COC(=O)N[C@H](C(=O)N1CC2(CC2)C[C@H]1c1ncc(-c2ccc(C#Cc3ccc4nc([C@@H]5CC6(CC6)CN5C(=O)[C@H](NC(=O)OC(C)(C)C)[C@H](C)c5ccccc5)[nH]c4c3)cc2)[nH]1)C(C)C [Example 669] | < 8.00 | 
